According to PMC7765098, “Non-Steroidal Anti-Inflammatory Drugs Increase Cisplatin, Paclitaxel, and Doxorubicin Efficacy against Human Cervix Cancer Cells” (Pharmaceuticals, 2020):
Read-outs that look alike come from different tables or passages of the source. Values belong to the compound of their own block, whether it stands above or below them.

Assays:
[1] = system: MCF-10A mammary gland cells; test: Bidimensional MCF-10A cell proliferation (MTT assay); type: cell-based, human; conditions: read-out: IC50, bidimensional MCF-10A cell growth
Description: (§1) For cellular proliferation with and without drugs, the cell lines (20 × 10^3 cells/well) were grown as bidimensional in 96-well plates containing Dulbecco’s Modified Eagle’s Medium (DMEM) (Sigma-Aldrich) for 24 h.

3T3 fibroblasts = test: Bidimensional 3T3 fibroblast proliferation (MTT assay); type: cell-based, mouse; conditions: read-out: IC50, bidimensional 3T3 cell growth
Description: as §1
(§2) The combination effect of NSAIDs and chemotherapy drugs on proliferation was also analyzed by determining the resistance index ratio (RI) and the combination index (CI) value.

HeLa MCTS = test: HeLa multi-cellular tumor spheroid (MCTS) growth, preventive and curative protocols; type: cell-based, human
Description: HeLa, SiHa, and U373 (1 × 10^5 cells/mL) were seeded onto 2% (w/v) agarose-coated culture dishes in 5 mL DMEM. […] The growth of each MCTS was analyzed by fitting data to a logistic function for exponential growth using the Origin 8 software (Northampton MA, USA).
as §2

HeLa cells [2] = test: Bidimensional HeLa cell proliferation (MTT assay), drugs alone or combined; type: cell-based, human; conditions: for IC50: read-out: IC50, bidimensional HeLa cell growth; for decrement of the IC50 value: bidimensional HeLa, presence of either NSAID (celecoxib or DMC) vs monotherapy
Description: as §1, §2

[3] = system: glycolysis flux in HeLa cells; test: Glycolytic flux (lactate production) in HeLa cells; type: cell-based, human; conditions: 5 µM celecoxib, 2 µM cisplatin, 15 µM paclitaxel, alone; 24 h exposure
Description: Glycolysis was started by adding 5 mM glucose (Sigma-Aldrich). Cellular samples were collected after 0 and 10 min of incubation, swiftly mixed with 30% (w/v) of cold perchloric acid, and centrifuged at 3500 rpm for 5 min. Supernatants were neutralized with 1N KOH/100 mM Tris. Cells were also incubated with 2-deoxyglucose (2-DG, 20 mM) (Sigma-Aldrich) to prevent lactate production by glycogen degradation. Lactate production was determined by the lactate dehydrogenase (Roche, Mannheim, Germany) coupled assay registering the NADH formation at 340 nm.

[4] = system: OxPhos flux in HeLa cells; test: OxPhos flux (oligomycin-sensitive oxygen consumption) in HeLa cells; type: cell-based, human; conditions: for OxPhos flux decrease: 5 µM celecoxib, 2 µM cisplatin, 15 µM paclitaxel, 24 h exposure; for OxPhos (mitochondrial flux) decrease, summary in Discussion: celecoxib or DMC alone, or combined with chemotherapy drugs
Description: For total oxygen consumption and OxPhos fluxes, HeLa, SiHa, or U373 cells or 3T3 fibroblasts (1 mg protein/mL), cultured for 24 h with the indicated drugs, were harvested and further incubated at 37 °C in air-saturated KR buffer and under constant agitation.

[5] = system: OxPhos flux in HeLa cells; conditions: vs. non-treated cells; cited from earlier work
HeLa cells [6] = test: Cell invasiveness assay (Boyden chamber), HeLa; type: cell-based, human; conditions: celecoxib (5 µM), paclitaxel (15 µM), cisplatin (2 µM), alone or combined, 24 h
Description: The lower compartment was filled with serum-free DMEM. After 24 h at 37 °C, the invasive cells found in the lower compartment were loaded with 60 nM calcein AM (acetomethylester) for 60 min.

HFF1 fibroblasts = test: Bidimensional HFF1 fibroblast proliferation (MTT assay); type: cell-based; conditions: read-out: IC50, bidimensional HFF1 cell growth
Description: as §1

COX-2 = conditions: at 100 µM; cited from earlier work
[7] = drug alone, 24 h of drug exposure, non-cancer
[8] = drug alone, added at the beginning of culture, determined at day 20 of growth, read-out: IC50, tridimensional HeLa MCTS, Preventive
[9] = drug alone, added once spheroids were formed (day 10), determined at day 20 of growth, read-out: IC50, tridimensional HeLa MCTS, Curative
[10] = drug alone, 24 h of drug exposure
[11] = Homo sapiens, MCF-10A, drug alone, 24 h of drug exposure, non-cancer
[12] = Homo sapiens, HeLa, 480 h, read-out: IC50, tridimensional HeLa MCTS, Preventive
[13] = Homo sapiens, HeLa, read-out: IC50, tridimensional HeLa MCTS, Curative
[14] = Homo sapiens, HeLa, drug alone, 24 h of drug exposure
[15] = Mus musculus, NIH3T3, drug alone, 24 h of drug exposure, non-cancer
[16] = Homo sapiens, HFF-1, drug alone, 24 h of drug exposure, non-cancer
[17] = Homo sapiens, HeLa, 480 h, drug alone, added at the beginning of culture, determined at day 20 of growth, read-out: IC50, tridimensional HeLa MCTS, Preventive
[18] = Homo sapiens, HeLa, drug alone, added once spheroids were formed (day 10), determined at day 20 of growth, read-out: IC50, tridimensional HeLa MCTS, Curative

Compound: N.N.O=C([O-])C1(C(=O)[O-])CCC1.[Pt+2] [Carboplatin, carboplatin]
- IC50 [1, 7]: > 1000 µM
- IC50 (3T3 fibroblasts; [7]): > 5000 µM
- IC50 (HeLa MCTS; [8]): 0.165 ± 0.028 µM
- IC50 (HeLa MCTS; [9]): 287 ± 43 µM
- IC50, bidimensional HeLa cell growth (HeLa cells [2]; [10]): in the mM range
- IC50 (HeLa cells [2]; [10]): 1000 ± 400 µM

Compound: Cc1ccc(-c2cc(C(F)(F)F)nn2-c2ccc(S(N)(=O)=O)cc2)cc1 [Celecoxib, celecoxib]
- IC50 [1, 11]: > 100 µM
- glycolysis decrease [3]: 36–50%
- OxPhos flux decrease ([4]; alone or in combination): 36–50%
- OxPhos (mitochondrial flux) decrease, summary in Discussion [4]: 50–60%
- OxPhos and mitochondrial membrane potential affected [5]: 50–80%
- IC50 (3T3 fibroblasts; Mus musculus, NIH3T3, 24 h): 119 ± 7 µM
- decrease of invasiveness potential (HeLa cells [6]): did not alter
- IC50 (HFF1 fibroblasts; Homo sapiens, HFF-1, 24 h): 96 ± 13 µM
- decrease of chemotherapy drug IC50 values (HeLa MCTS; HeLa MCTS, both preventive and curative protocols): > 70%
- IC50 (HeLa MCTS; [12]): 0.001 ± 0.0003 µM
- IC50 (HeLa MCTS; [13]): 7.5 ± 2 µM
- IC50 (HeLa cells [2]; [14]): 55 ± 9 µM

Compound: N.N.[Cl][Pt][Cl] [Cisplatin, cisplatin]
- IC50 [1, 7]: 82 ± 4 µM
- glycolysis decrease [3]: 40–60%
- OxPhos flux decrease ([4]; alone or in combination): did not significantly affect
- decrease of invasiveness potential (HeLa cells [6]): did not alter
- IC50 (HFF1 fibroblasts; [7]): 59 ± 26 µM
- IC50 (HeLa MCTS; [8]): 0.05 ± 0.017 µM
- IC50 (HeLa MCTS; [9]): 270 ± 20 µM
- decrement of the IC50 value (HeLa cells [2]): 38–66%
- IC50 (HeLa cells [2]; [10]): 15 ± 3 µM

Compound: O=P1(N(CCCl)CCCl)NCCCO1 (stereo not shown) [Cyclophosphamide, cyclophosphamide]
- IC50 ([1]; Homo sapiens, MCF-10A, 24 h): 102 ± 35 µM
- IC50 (3T3 fibroblasts; Mus musculus, NIH3T3, 24 h): > 1000 µM
- IC50 (HeLa MCTS; [12]): 0.136 ± 0.087 µM
- IC50 (HeLa MCTS; [13]): 315 ± 30 µM
- IC50 (HeLa cells [2]; Homo sapiens, HeLa, 24 h): 16 ± 3 µM

Compound: Cc1ccc(C)c(-c2cc(C(F)(F)F)nn2-c2ccc(S(N)(=O)=O)cc2)c1 [DMC, 2,5-dimethylcelecoxib]
- IC50 [1, 11]: > 100 µM
- inhibition at 15 µM ([4]; Homo sapiens, HeLa, DMC (15 µM), paclitaxel (20 µM), cisplatin (5 µM), alone or in combination, 24 h, n=1 (Figure S3)): 60%
- OxPhos (mitochondrial flux) decrease, summary in Discussion [4]: 50–60%
- IC50 (3T3 fibroblasts; [15]): 69 ± 8.5 µM
- IC50 (HFF1 fibroblasts; [16]): 44 ± 11 µM
- lowering of cisplatin and paclitaxel IC50 values (HeLa MCTS; HeLa MCTS curative protocol): 45–73%
- lowering of cisplatin and paclitaxel IC50 values (HeLa MCTS; HeLa MCTS preventive protocol): 52–55%
- IC50 (HeLa MCTS; [17]): 0.01 ± 0.002 µM
- IC50 (HeLa MCTS; [18]): 32 ± 10 µM
- COX-2 activity blocked (COX-2): 15%
- IC50 (HeLa cells [2]; [14]): 48 ± 2 µM

Compound: Casiopeina II-gly [CasII-gly]
- IC50 [1, 7]: 17 ± 3 µM
- IC50 (3T3 fibroblasts; [7]): 9 ± 2 µM
- increase of cisplatin toxicity (decrease of cisplatin IC50) (HeLa MCTS; HeLa MCTS): 84–96%
- IC50 (HeLa MCTS; [8]): 0.03 ± 0.0075 µM
- IC50 (HeLa MCTS; [9]): 106 ± 2 µM
- decrease of IC50 values of cisplatin, paclitaxel, and doxorubicin (HeLa MCTS; tridimensional HeLa cultures): 62–96%
- decrease of IC50 values of cisplatin, paclitaxel, and doxorubicin (HeLa cells [2]; bidimensional HeLa cultures, co-added drug vs monotherapy): 19–54%
- IC50 (HeLa cells [2]; [10]): 1.5 ± 0.9 µM

The next lines start with results.

- IC50 (HeLa MCTS; [17]): 0.048 ± 0.007 µM
- IC50 (HeLa MCTS; [18]): 86 ± 5 µM
- IC50 (HeLa cells [2]; [14]): 26 ± 6 µM
- decrement of the IC50 value (HeLa cells [2]): 38–66%
Compound: COc1cccc2c1C(=O)c1c(O)c3c(c(O)c1C2=O)C[C@@](O)(C(=O)CO)C[C@@H]3O[C@H]1C[C@H](N)[C@H](O)[C@H](C)O1 [Doxorubicin, doxorubicin]
- IC50 [1, 11]: 82 ± 25 µM
- IC50 (3T3 fibroblasts; [15]): 51 ± 18 µM
- IC50 (HFF1 fibroblasts; [16]): 65 ± 19 µM

- IC50 (HeLa MCTS; [17]): 0.065 ± 0.017 µM
- IC50 (HeLa MCTS; [18]): 128 ± 20 µM
- IC50 (HeLa cells [2]; [14]): 30 ± 5 µM
Compound: Nc1ccn([C@@H]2O[C@H](CO)[C@@H](O)C2(F)F)c(=O)n1 [Gemcitabine, gemcitabine]
- IC50 [1, 11]: > 1000 µM
- IC50 (3T3 fibroblasts; [15]): > 2000 µM

- IC50 (HeLa MCTS; [17]): 0.016 ± 0.005 µM
- IC50 (HeLa MCTS; [18]): 26.5 ± 0.1 µM
- IC50 (HeLa cells [2]; [14]): 21 ± 4 µM
Compound: CC(=O)O[C@H]1C(=O)[C@@]2(C)[C@H]([C@H](OC(=O)c3ccccc3)[C@]3(O)C[C@H](OC(=O)[C@H](O)[C@@H](NC(=O)c4ccccc4)c4ccccc4)C(C)=C1C3(C)C)[C@]1(OC(C)=O)CO[C@@H]1C[C@@H]2O [Paclitaxel]
- IC50 [1, 11]: 100 ± 18 µM
- glycolysis decrease [3]: 40–60%
- OxPhos flux decrease ([4]; alone or in combination): did not significantly affect
- IC50 (3T3 fibroblasts; [15]): 80 ± 12 µM
- decrease of invasiveness potential (HeLa cells [6]): did not alter
- IC50 (HFF1 fibroblasts; [16]): 68 ± 30 µM

- IC50 (HeLa MCTS; [17]): 0.025 ± 0.006 µM
- IC50 (HeLa MCTS; [18]): 30 ± 2 µM
- IC50 (HeLa cells [2]; [14]): 4.7 ± 0.7 µM
Compound: Cc1c(C)c2c(c(C)c1OCC(=O)O)CC[C@@](C)(CCC[C@H](C)CCC[C@H](C)CCCC(C)C)O2 [α-TEA, α-tocopherol ether linked acetic acid analog]

- IC50 (HeLa MCTS; [8]): 0.01 ± 0.004 µM
- IC50 (HeLa MCTS; [9]): 50 ± 11 µM
- IC50 (HeLa cells [2]; [10]): 1.2 ± 0.46 µM
Compound: Cc1c(C)c2c(c(C)c1OC(=O)CCC(=O)O)CC[C@@](C)(CCC[C@H](C)CCC[C@H](C)CCCC(C)C)O2 [α-TOS, α-tocopheryl succinate]

- IC50 (HeLa cells [2]; [10]): 1.2 ± 0.48 µM
Compound: methoxy-tocopheryl oxyacetic acid [M-TEA]
